Source: article PMC4447944 (The Journal of Biological Chemistry, 2015)

Columns and labels:
[1] = biological target: T1, hGRK7 (Homo sapiens, UniProt Q8WTQ7); assay: KINOMEscan; assay type: binding
T1 construct: purchased DiscoverX

[2] = biological target: T2, hALK(L1196M) (Homo sapiens, UniProt Q9UM73, L1196M); assay: KINOMEscan; assay type: binding
T2 construct: purchased DiscoverX

[3] = biological target: T3, hALK(C1156Y) (Homo sapiens, UniProt Q9UM73, C1156Y); assay: KINOMEscan; assay type: binding
T3 construct: purchased DiscoverX

[4] = biological target: hOPRm1 (Homo sapiens, UniProt P35372); assay: β-arrestin Antagonist (Eurofins-CEREP); settings: read-out: % Effect, Inhibition
[5] = biological target: T4, hBMPR1A (Homo sapiens, UniProt P36894); assay: KINOMEscan; assay type: binding
T4 construct: purchased DiscoverX
T4 sequence (P36894 24-532): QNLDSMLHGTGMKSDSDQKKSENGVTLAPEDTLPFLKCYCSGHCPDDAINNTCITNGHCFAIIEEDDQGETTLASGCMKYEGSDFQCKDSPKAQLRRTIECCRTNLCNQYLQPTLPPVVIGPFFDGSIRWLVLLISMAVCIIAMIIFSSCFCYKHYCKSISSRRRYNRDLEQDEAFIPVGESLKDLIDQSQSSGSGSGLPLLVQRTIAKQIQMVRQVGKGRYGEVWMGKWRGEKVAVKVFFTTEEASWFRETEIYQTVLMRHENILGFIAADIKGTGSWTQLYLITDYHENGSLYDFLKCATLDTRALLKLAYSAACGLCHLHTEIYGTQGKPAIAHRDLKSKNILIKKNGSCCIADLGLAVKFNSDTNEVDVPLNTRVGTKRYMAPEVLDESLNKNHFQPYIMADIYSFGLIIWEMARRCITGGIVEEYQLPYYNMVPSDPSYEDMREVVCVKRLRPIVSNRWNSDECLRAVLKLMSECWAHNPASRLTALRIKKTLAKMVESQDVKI

[6] = biological target: T5, hULK3 (Homo sapiens, UniProt Q6PHR2); assay: KINOMEscan; assay type: binding
T5 construct: purchased DiscoverX

[7] = biological target: T6, hMAP3K3 (Homo sapiens, UniProt Q99759); assay: KINOMEscan; assay type: binding
T6 construct: purchased DiscoverX (KINOMEscan platform)

[8] = biological target: T7, hWNK1 (Homo sapiens, UniProt Q9H4A3); assay: KINOMEscan; assay type: binding
T7 construct: purchased DiscoverX

[9] = biological target: T8, hAURKC (Homo sapiens, UniProt Q9UQB9); assay: KINOMEscan; assay type: binding
T8 construct: purchased DiscoverX
T8 sequence (Q9UQB9 whole entry): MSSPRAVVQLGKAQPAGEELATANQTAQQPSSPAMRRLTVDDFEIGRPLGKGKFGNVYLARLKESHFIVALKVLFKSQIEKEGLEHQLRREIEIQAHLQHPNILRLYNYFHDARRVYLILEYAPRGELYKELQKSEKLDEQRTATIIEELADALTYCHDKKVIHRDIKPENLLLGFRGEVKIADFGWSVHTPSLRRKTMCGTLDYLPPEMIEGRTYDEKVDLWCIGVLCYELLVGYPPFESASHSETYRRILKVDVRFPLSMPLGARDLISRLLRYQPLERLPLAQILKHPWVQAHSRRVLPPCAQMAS

[10] = biological target: T9, hMAPKAPK2 (Homo sapiens, UniProt P49137); assay: KINOMEscan; assay type: binding
T9 construct: purchased DiscoverX
T9 sequence (P49137 whole entry): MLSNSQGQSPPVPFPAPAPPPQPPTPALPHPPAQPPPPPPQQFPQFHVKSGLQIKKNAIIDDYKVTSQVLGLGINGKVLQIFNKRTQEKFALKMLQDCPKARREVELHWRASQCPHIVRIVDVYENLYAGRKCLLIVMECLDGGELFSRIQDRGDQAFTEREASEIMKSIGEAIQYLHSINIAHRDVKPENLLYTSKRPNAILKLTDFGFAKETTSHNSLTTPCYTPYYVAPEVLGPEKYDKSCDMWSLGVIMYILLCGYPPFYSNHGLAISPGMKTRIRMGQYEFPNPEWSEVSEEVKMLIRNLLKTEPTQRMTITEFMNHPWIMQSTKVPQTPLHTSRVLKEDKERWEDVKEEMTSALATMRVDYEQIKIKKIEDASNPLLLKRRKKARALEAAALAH

[11] = biological target: T10, hDCAMKL3 (Homo sapiens, UniProt Q9C098); assay: KINOMEscan; assay type: binding
T10 construct: purchased DiscoverX (KINOMEscan platform)

[12] = biological target: T11, hABL1(pQ252H) (Homo sapiens, UniProt P00519, Q252H); assay: KINOMEscan; assay type: binding
T11 construct: purchased DiscoverX (KINOMEscan platform)

[13] = biological target: T12, hEPHB2 (Homo sapiens, UniProt P29323); assay: KINOMEscan; assay type: binding
T12 construct: purchased DiscoverX

[14] = biological target: T13, hGRK4 (Homo sapiens, UniProt P32298); assay: KINOMEscan; assay type: binding
T13 construct: purchased DiscoverX

[15] = biological target: T14, hMLCK (Homo sapiens, UniProt Q32MK0); assay: KINOMEscan; assay type: binding
T14 construct: purchased DiscoverX

[16] = biological target: T15, hCSNK1D (Homo sapiens, UniProt P48730); assay: KINOMEscan; assay type: binding
T15 construct: purchased DiscoverX (KINOMEscan platform)
T15 sequence (P48730 whole entry): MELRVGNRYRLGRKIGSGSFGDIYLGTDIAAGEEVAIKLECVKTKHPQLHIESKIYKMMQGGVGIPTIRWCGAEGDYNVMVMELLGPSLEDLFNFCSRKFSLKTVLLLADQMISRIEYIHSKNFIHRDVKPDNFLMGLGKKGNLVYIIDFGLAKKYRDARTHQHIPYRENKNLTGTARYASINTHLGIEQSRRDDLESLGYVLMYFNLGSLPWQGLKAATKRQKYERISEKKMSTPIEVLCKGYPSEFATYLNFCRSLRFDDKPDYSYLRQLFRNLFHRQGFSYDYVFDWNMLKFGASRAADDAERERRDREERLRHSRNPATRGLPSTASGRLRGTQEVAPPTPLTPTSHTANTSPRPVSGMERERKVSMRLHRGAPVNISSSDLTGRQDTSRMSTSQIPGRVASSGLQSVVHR

[17] = biological target: T16, hCAMK2G (Homo sapiens, UniProt Q13555); assay: KINOMEscan; assay type: binding
T16 construct: purchased DiscoverX
T16 sequence (Q13555 whole entry): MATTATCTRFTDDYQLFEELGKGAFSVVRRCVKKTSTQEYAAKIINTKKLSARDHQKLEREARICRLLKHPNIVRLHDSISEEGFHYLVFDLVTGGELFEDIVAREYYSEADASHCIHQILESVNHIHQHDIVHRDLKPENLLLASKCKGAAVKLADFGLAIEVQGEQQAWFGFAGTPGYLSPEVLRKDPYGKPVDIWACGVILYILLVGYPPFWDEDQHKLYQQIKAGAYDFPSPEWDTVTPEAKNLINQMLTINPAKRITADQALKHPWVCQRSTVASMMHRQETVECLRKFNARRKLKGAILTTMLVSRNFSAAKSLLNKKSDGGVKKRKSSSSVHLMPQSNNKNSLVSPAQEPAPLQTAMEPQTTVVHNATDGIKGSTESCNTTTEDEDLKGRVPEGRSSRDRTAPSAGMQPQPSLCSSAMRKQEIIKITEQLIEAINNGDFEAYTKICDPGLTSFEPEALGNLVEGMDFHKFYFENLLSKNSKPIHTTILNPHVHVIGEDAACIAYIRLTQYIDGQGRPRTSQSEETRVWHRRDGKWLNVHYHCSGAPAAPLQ

[18] = biological target: T17, hIRAK1 (Homo sapiens, UniProt P51617); assay: KINOMEscan; assay type: binding
T17 construct: purchased DiscoverX (KINOMEscan panel)

[19] = biological target: T18, hEGFR(E746-A750del) (Homo sapiens, UniProt P00533, DEL746-750); assay: KINOMEscan; assay type: binding
T18 construct: purchased DiscoverX

[20] = biological target: T19, hMEK4 (Homo sapiens, UniProt P45985); assay: KINOMEscan; assay type: binding
T19 construct: purchased DiscoverX

[21] = biological target: T20, hLATS1 (Homo sapiens, UniProt O95835); assay: KINOMEscan; assay type: binding
T20 construct: purchased DiscoverX (KINOMEscan platform)
T20 sequence (O95835 whole entry): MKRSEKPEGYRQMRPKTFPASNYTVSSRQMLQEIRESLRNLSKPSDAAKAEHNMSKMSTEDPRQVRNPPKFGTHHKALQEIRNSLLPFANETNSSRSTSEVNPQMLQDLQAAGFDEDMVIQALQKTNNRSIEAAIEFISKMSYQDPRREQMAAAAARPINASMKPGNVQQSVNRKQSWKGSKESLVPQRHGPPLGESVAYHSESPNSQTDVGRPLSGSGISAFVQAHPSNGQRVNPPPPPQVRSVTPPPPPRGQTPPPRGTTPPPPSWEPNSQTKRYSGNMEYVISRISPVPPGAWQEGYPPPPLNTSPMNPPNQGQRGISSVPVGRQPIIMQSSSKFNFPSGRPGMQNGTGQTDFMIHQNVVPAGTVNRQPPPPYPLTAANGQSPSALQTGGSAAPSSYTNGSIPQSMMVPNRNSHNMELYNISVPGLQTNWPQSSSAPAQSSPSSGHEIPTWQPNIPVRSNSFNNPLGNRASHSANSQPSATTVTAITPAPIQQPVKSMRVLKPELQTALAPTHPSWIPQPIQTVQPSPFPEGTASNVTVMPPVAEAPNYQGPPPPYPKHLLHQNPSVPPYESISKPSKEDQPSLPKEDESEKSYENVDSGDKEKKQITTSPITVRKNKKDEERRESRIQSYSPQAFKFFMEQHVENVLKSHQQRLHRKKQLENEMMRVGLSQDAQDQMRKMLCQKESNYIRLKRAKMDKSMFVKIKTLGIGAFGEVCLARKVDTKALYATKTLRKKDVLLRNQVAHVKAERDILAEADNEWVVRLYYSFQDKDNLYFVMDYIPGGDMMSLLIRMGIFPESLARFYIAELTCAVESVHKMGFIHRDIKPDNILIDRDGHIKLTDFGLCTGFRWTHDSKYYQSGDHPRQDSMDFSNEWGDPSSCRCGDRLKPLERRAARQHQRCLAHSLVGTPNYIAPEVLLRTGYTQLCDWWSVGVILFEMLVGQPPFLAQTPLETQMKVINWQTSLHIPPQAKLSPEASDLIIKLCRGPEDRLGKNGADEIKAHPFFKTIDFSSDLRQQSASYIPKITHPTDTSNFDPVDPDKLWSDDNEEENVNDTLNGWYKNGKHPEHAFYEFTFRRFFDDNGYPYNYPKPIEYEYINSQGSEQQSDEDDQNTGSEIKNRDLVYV

[22] = biological target: T21, hSLK (Homo sapiens, UniProt Q9H2G2); assay: KINOMEscan; assay type: binding
T21 construct: purchased DiscoverX (KINOMEscan platform)

[23] = biological target: hD1 (Homo sapiens, UniProt P21728); assay: cAMP 1% DMSO Potentiation (Eurofins-CEREP); settings: @ 10 μM
Sequence of hD1 (P21728 whole entry): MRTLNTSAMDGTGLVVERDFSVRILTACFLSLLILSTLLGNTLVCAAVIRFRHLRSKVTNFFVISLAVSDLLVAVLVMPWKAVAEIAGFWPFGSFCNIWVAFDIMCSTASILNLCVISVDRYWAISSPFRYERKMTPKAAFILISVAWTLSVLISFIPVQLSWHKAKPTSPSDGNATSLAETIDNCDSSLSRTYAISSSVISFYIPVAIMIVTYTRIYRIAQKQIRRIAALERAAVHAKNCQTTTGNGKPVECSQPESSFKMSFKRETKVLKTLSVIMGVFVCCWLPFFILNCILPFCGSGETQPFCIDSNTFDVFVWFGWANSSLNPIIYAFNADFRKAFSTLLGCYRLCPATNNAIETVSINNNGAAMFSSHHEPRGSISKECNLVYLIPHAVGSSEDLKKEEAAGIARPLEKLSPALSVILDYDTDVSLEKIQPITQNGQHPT

[24] = biological target: T22, hTLK2 (Homo sapiens, UniProt Q86UE8); assay: KINOMEscan; assay type: binding
T22 construct: purchased DiscoverX
T22 sequence (Q86UE8 whole entry): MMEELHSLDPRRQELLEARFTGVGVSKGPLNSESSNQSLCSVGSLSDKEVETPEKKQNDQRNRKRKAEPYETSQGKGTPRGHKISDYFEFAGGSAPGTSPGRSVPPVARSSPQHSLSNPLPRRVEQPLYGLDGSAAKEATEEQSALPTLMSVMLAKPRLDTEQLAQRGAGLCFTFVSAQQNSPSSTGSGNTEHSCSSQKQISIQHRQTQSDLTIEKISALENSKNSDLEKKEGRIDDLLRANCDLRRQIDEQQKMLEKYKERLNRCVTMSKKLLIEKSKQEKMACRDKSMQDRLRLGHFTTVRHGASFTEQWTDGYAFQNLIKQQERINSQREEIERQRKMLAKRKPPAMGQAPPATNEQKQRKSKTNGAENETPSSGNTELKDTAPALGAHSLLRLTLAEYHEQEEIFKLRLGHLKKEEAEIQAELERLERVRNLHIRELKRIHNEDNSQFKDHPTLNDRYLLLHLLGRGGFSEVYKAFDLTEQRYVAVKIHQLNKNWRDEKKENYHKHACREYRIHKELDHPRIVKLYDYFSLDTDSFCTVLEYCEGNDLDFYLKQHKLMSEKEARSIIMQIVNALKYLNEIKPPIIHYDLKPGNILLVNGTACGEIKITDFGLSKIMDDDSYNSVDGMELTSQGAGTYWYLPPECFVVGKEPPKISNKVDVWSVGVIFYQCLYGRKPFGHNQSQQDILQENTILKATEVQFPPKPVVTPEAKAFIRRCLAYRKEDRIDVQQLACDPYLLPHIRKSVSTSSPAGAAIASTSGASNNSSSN

[25] = biological target: T23, hEGFR(L861Q) (Homo sapiens, UniProt P00533, L861Q); assay: KINOMEscan; assay type: binding
T23 construct: purchased DiscoverX

[26] = biological target: T24, hRIPK2 (Homo sapiens, UniProt O43353); assay: KINOMEscan; assay type: binding
T24 construct: purchased DiscoverX (KINOMEscan platform)

[27] = biological target: T25, hPPARα (Homo sapiens, UniProt Q07869); assay: Nuclear hormone receptor assay (Eurofins-CEREP); settings: read-out: Relative IC50
T25 construct: Eurofins-CEREP
T25 sequence (Q07869 whole entry): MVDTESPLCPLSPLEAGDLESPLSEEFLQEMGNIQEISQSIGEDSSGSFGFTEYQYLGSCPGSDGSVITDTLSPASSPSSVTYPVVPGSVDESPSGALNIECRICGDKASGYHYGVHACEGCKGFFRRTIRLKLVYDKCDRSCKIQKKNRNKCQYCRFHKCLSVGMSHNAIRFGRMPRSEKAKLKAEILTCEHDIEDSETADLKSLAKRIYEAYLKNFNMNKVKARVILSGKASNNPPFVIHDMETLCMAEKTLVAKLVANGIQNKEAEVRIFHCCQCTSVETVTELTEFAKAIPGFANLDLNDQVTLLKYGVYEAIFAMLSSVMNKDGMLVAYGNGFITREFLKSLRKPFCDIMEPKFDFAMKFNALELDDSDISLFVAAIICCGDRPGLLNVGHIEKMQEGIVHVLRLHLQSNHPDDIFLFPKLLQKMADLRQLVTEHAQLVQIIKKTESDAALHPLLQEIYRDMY

[28] = biological target: T26, hSTK39 (Homo sapiens, UniProt Q9UEW8); assay: KINOMEscan; assay type: binding
T26 construct: purchased DiscoverX (KINOMEscan platform)

[29] = biological target: T27, hHUNK (Homo sapiens, UniProt P57058); assay: KINOMEscan; assay type: binding
T27 construct: purchased DiscoverX (KINOMEscan panel)

[30] = biological target: T28, hM2 (Homo sapiens, UniProt P08172); assay: β-arrestin Antagonist (Eurofins-CEREP); settings: read-out: % Effect, Inhibition
T28 sequence (P08172 1-466): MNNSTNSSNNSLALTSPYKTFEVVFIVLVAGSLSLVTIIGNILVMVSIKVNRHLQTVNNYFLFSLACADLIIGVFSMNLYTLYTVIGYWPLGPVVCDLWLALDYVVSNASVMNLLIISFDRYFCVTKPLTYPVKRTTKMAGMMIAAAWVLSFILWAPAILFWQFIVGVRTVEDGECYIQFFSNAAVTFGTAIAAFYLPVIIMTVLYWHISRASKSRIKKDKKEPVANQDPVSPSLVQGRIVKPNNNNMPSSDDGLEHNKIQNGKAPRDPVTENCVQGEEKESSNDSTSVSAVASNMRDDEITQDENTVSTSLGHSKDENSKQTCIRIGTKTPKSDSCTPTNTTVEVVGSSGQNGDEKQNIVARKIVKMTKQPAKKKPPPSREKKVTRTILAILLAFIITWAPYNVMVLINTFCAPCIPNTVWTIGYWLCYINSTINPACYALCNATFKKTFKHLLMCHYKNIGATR

## Cc1cn(CCN2CCN(c3ccccc3-c3cc(C#N)cc(C(=O)NCCCN4CCCC4)c3)CC2)c2ccccc12 [LLY-507, 3-cyano-5-{2-[4-[2-(3-methylindol-1-yl)ethyl]piperazin-1-yl]-phenyl}-N-[(3-pyrrolidin-1-yl)propyl]benzamide]
[1]
  IC50: > 20 µM
[2]
  IC50: > 20 µM
[3]
  IC50: > 20 µM
[4]
  inhibition at 1 µM: -3.9%
[5]
  IC50: > 20 µM
[6]
  IC50: > 20 µM
[7]
  IC50: > 20 µM
[8]
  IC50: > 20 µM
[9]
  IC50: > 20 µM
[10]
  IC50: > 20 µM
[11]
  IC50: > 20 µM
[12]
  IC50: > 20 µM
[13]
  IC50: > 20 µM
[14]
  IC50: > 20 µM
[15]
  IC50: > 20 µM
[16]
  IC50: > 20 µM
[17]
  IC50: > 20 µM
[18]
  IC50: > 20 µM
[19]
  IC50: > 20 µM
[20]
  IC50: > 20 µM
[21]
  IC50: > 20 µM
[22]
  IC50: > 20 µM
[23]
  % Effect, Potentiation: -19.4%
[24]
  IC50: > 20 µM
[25]
  IC50: > 20 µM
[26]
  IC50: > 20 µM
[27]
  IC50: > 10 µM
[28]
  IC50: > 20 µM
[29]
  IC50: > 20 µM
[30]
  inhibition at 10 µM: 36.3%
